Measurements: patent publication US10259810B2, “N-sulfonylated pyrazolo[3,4-b]pyridin-6-carboxamides and method of use” (AbbVie S.à.r.l., priority 2015, dated 2019)
Read-outs that look alike come from different tables or passages of the source.

How the values were obtained:
Assay type in all cases: cell-based
ΔF508-CFTR [1] = target: T1, ΔF508-CFTR (Homo sapiens, UniProt P13569, DEL508-508); test: CFTR cell surface levels using HRP-tagged ΔF508-CFTR expressing CFBE cells, in the presence of a co-corrector; details: HRP-tagged ΔF508-CFTR CFBE cells, in the presence of 3 μM co-corrector; for EC50: read-out: EC50
T1 construct: host or cells: CFBE41o-, doxycycline-inducible
T1 sequence (P13569 with tags, fused parts or gaps DEL508-508): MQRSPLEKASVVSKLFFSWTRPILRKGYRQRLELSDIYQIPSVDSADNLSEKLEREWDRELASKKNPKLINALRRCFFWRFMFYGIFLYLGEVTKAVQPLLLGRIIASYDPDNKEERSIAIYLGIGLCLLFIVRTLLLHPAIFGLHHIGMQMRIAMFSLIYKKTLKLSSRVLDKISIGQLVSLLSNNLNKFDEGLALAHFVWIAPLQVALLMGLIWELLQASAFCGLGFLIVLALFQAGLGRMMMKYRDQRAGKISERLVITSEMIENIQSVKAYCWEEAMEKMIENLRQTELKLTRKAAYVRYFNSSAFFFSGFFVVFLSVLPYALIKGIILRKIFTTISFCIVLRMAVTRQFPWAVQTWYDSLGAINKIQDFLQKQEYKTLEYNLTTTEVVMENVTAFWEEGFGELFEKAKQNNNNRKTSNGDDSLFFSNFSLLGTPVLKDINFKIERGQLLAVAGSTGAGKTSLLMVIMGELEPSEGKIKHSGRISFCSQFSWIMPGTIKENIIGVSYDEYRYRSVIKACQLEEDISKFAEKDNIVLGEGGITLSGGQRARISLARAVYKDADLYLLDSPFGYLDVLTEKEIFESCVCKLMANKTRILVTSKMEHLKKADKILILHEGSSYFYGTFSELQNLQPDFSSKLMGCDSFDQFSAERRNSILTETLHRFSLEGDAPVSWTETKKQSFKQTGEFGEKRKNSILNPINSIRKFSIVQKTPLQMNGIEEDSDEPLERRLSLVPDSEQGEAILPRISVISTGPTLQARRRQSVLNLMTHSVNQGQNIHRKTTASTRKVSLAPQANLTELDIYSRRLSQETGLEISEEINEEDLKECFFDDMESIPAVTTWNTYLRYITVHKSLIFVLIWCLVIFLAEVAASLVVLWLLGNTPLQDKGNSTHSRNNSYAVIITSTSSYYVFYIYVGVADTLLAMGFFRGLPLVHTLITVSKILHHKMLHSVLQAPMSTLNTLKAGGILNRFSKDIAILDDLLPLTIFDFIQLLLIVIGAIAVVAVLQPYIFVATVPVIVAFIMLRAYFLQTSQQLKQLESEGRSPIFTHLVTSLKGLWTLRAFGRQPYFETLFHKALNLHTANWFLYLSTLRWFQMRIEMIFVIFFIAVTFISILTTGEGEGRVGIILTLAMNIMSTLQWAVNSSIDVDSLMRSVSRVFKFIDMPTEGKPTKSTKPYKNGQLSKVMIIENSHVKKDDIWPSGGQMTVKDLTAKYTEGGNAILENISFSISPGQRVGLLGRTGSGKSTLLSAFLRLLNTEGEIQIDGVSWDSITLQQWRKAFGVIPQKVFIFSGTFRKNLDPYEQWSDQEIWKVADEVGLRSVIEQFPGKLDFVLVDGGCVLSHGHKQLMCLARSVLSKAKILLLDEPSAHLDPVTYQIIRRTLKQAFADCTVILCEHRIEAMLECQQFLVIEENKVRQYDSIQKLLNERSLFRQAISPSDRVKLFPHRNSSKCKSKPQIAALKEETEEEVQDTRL
Method in brief: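 Chemiluminescent read-out of surface HRP (15 min, dark) after PBS washes. Activity is normalized as 100×(sample−DMSO)/(3 μM co-corrector alone−DMSO).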

ΔF508-CFTR [2] = target: T1, ΔF508-CFTR; test: CFTR cell surface levels using HRP-tagged ΔF508-CFTR expressing CFBE cells, intrinsic corrector capacity; design: % Activation: concentration or dose not given beside the values; details: HRP-tagged ΔF508-CFTR expressing CFBE41o- cells, compound alone (intrinsic corrector capacity), 20 hours at 33° C.; for EC50: read-out: EC50
Method in brief: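 Read-out: chemiluminescent HRP activity of ECL4-HRP-tagged ΔF508-CFTR at the cell surface, 15 min substrate in dark. Normalized as 100×(sample−DMSO)/(positive control−DMSO).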

CFTR ΔF508 = target: T2, CFTR ΔF508 (Homo sapiens, UniProt P13569, DEL508-508); test: Chronic TECC assay, primary bronchial epithelial cells of CF patients homozygous for CFTR ΔF508 (corrector, co-corrector and potentiator); details: chronic TECC; for % Activity at 3 μM (AUC**): test compound at 3 μM; for % Activity at 1 μM (AUC**) / % Activity at 1 μM (Ieq*): test compound at 1 μM
T2 construct: bronchial epithelial cells isolated from CF patients homozygous for the CFTR ΔF508 mutation; McGill University; Asterand; University of North Carolina hAEC-CF; host or cells: primary human bronchial epithelial cells from CF patients homozygous for ΔF508, differentiated at air-liquid interface
T2 sequence (P13569 with tags, fused parts or gaps DEL508-508): as above
Method in brief: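 Primary bronchial epithelial cells from ΔF508-homozygous CF patients on collagen IV-coated Transwells were chronically treated with test compound plus corrector and potentiator, which were re-added before recording. Ieq was derived from PD and Rt in NaCl-Ringer, pH 7.4, at 37° C, with apical amiloride and bilateral forskolin, recorded every 2 min over 20 min. Ieq increase was normalized to controls, and EC50 was taken from per-well concentrations.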

[3] = AUC = full area under the curve upon forskolin stimulation
[4] = AUC = full area under the curve upon forskolin stimulation, read-out: EC50 (nM) (AUC**)
[5] = Ieq = calculations based on the maximum current, read-out: EC50 (nM) (Ieq*)
[6] = Ieq = calculations based on the maximum current

SMILES | % Activation (ΔF508-CFTR [1]) | EC50 (ΔF508-CFTR [1]) | % Activation (ΔF508-CFTR [2]) | EC50 (ΔF508-CFTR [2]) | % Activity at 3 μM (AUC**) (CFTR ΔF508; [3]) | % Activity at 1 μM (AUC**) (CFTR ΔF508; [3]) | EC50 (CFTR ΔF508; [4]) | EC50 (CFTR ΔF508; [5]) | % Activity at 1 μM (Ieq*) (CFTR ΔF508; [6])
COCC1CCN(c2cc(C(=O)NS(=O)(=O)N3CCN(C4CC4)CC3)nc3c2c(C2CCC2)nn3-c2ccc(F)cc2)CC1 [Compound 609, 3-cyclobutyl-N-(4-cyclopropylpiperazine-1-sulfonyl)-1-(4-fluorophenyl)-4-[4-(methoxymethyl)piperidin-1-yl]-1H-pyrazolo[3,4-b]pyridine-6-carboxamide] | 414.2% | 109 nM | 202.53% | 249 nM | 306.6667% | – | – | – | –
COc1cc(-n2nc(C3CCC3)c3c(N4CCC(N5CCOCC5)CC4)cc(C(=O)NS(C)(=O)=O)nc32)ccn1 [Compound 474, 3-cyclobutyl-N-(methanesulfonyl)-1-(2-methoxypyridin-4-yl)-4-[4-(morpholin-4-yl)piperidin-1-yl]-1H-pyrazolo[3,4-b]pyridine-6-carboxamide] | 390.2% | 524 nM | 194.5% | 581 nM | – | 226.6667% | – | – | –
COCCS(=O)(=O)NC(=O)c1cc(N2CCC(COC)CC2)c2c(C(C)C)nn(-c3ccc(F)cc3)c2n1 [Compound 236, 1-(4-fluorophenyl)-N-(2-methoxyethanesulfonyl)-4-[4-(methoxymethyl)piperidin-1-yl]-3-(propan-2-yl)-1H-pyrazolo[3,4-b]pyridine-6-carboxamide] | 497.5% | 93.2 nM | 309.83% | 316 nM | – | 434.22% | 80 nM | – | –
CS(=O)(=O)NC(=O)c1cc(C2CCN(C3CCOCC3)CC2)c2c(C3CCC3)nn(-c3ccc(F)cc3)c2n1 [Compound 599, 3-cyclobutyl-1-(4-fluorophenyl)-N-(methanesulfonyl)-4-[1-(oxan-4-yl)piperidin-4-yl]-1H-pyrazolo[3,4-b]pyridine-6-carboxamide] | 285.2% | 270 nM | 88.94% | 331 nM | – | 116.6667% | – | – | –
CN(c1ccc(-c2cc(C(=O)NS(C)(=O)=O)nc3c2c(C2CCC2)nn3-c2ccccc2)cn1)C1CCOCC1 [Compound 74, 3-cyclobutyl-N-(methanesulfonyl)-4-{6-[methyl(oxan-4-yl)amino]pyridin-3-yl}-1-phenyl-1H-pyrazolo[3,4-b]pyridine-6-carboxamide] | 424.82% | 357 nM | 253.38% | 549 nM | – | – | – | < 30 nM | 240%
CN(C)S(=O)(=O)NC(=O)c1cc(N2CCC(N3CCOCC3)CC2)c2c(C3CCC3)nn(-c3ccnc(OC(F)F)c3)c2n1 [Compound 575, 3-cyclobutyl-1-[2-(difluoromethoxy)pyridin-4-yl]-N-(dimethylsulfamoyl)-4-[4-(morpholin-4-yl)piperidin-1-yl]-1H-pyrazolo[3,4-b]pyridine-6-carboxamide] | 361.3% | 87.8 nM | 202.65% | 147 nM | – | 246.6667% | – | – | –
O=C(NS(=O)(=O)N1CCOCC1)c1cc(N2CCC(N3CCOCC3)CC2)c2c(C3CCC3)nn(-c3ccc(F)cc3)c2n1 [Compound 487, 3-cyclobutyl-1-(4-fluorophenyl)-N-(morpholine-4-sulfonyl)-4-[4-(morpholin-4-yl)piperidin-1-yl]-1H-pyrazolo[3,4-b]pyridine-6-carboxamide] | 404.63% | 69 nM | 203.53% | 175 nM | – | 340% | – | – | –
CC(C)c1nn(-c2ccc(F)cc2)c2nc(C(=O)NS(C)(=O)=O)cc(N3CCC(C4CCN(C)CC4)CC3)c12 [Compound 320, 1-(4-fluorophenyl)-N-(methanesulfonyl)-4-(1'-methyl[4,4'-bipiperidin]-1-yl)-3-(propan-2-yl)-1H-pyrazolo[3,4-b]pyridine-6-carboxamide] | 590.6% | 82.7 nM | 376.35% | 309 nM | – | 215.3% | – | – | –
COCC1CCN(c2cc(C(=O)NS(=O)(=O)N3CCC(N4CCOCC4)C3)nc3c2c(C2CCC2)nn3-c2ccc(F)cc2)CC1 (centres unmarked) [Compound 608, 3-cyclobutyl-1-(4-fluorophenyl)-4-[4-(methoxymethyl)piperidin-1-yl]-N-[3-(morpholin-4-yl)pyrrolidine-1-sulfonyl]-1H-pyrazolo[3,4-b]pyridine-6-carboxamide] | 365.7% | 54.8 nM | 194.67% | 104 nM | 442.1916% | – | – | – | –
COCC1CCN(c2cc(C(=O)NS(C)(=O)=O)nc3c2c(C(C)C)nn3-c2cccc(N(C)C)c2)CC1 [Compound 144, 1-[3-(dimethylamino)phenyl]-N-(methanesulfonyl)-4-[4-(methoxymethyl)piperidin-1-yl]-3-(propan-2-yl)-1H-pyrazolo[3,4-b]pyridine-6-carboxamide] | 674.7% | 243 nM | 531.6% | 417 nM | – | – | – | 12 nM | 350%
CC(C)c1nn(-c2cccc(N3CCOCC3)c2)c2nc(C(=O)NS(C)(=O)=O)cc(-c3ccc(N4CCC(C#N)CC4)nc3)c12 [Compound 85, 4-[6-(4-cyanopiperidin-1-yl)pyridin-3-yl]-N-(methanesulfonyl)-1-[3-(morpholin-4-yl)phenyl]-3-(propan-2-yl)-1H-pyrazolo[3,4-b]pyridine-6-carboxamide] | 570.16% | 232 nM | 426.04% | 421 nM | – | – | – | > 1000 nM | 120%
O=C(NS(=O)(=O)N1CCC(F)C1)c1cc(N2CCC(N3CCOCC3)CC2)c2c(C3CCC3)nn(-c3ccc(F)cc3)c2n1 (centres unmarked) [Compound 537, 3-cyclobutyl-1-(4-fluorophenyl)-N-(3-fluoropyrrolidine-1-sulfonyl)-4-[4-(morpholin-4-yl)piperidin-1-yl]-1H-pyrazolo[3,4-b]pyridine-6-carboxamide] | 417.1% | 50.8 nM | 214.5% | 112 nM | 261.5724% | – | – | – | –
COCC1CCN(c2cc(C(=O)NS(=O)(=O)N3CCOCC3)nc3c2c(C2CCC2)nn3-c2ccccc2)CC1 [Compound 396, 3-cyclobutyl-4-[4-(methoxymethyl)piperidin-1-yl]-N-(morpholine-4-sulfonyl)-1-phenyl-1H-pyrazolo[3,4-b]pyridine-6-carboxamide] | 385.8% | 55 nM | 222.9% | 121 nM | 259.4666% | – | – | – | –
COCC1CCN(c2cc(C(=O)NS(=O)(=O)N3CCC(F)CC3)nc3c2c(C2CCC2)nn3-c2ccccc2)CC1 [Compound 399, 3-cyclobutyl-N-(4-fluoropiperidine-1-sulfonyl)-4-[4-(methoxymethyl)piperidin-1-yl]-1-phenyl-1H-pyrazolo[3,4-b]pyridine-6-carboxamide] | 388.77% | 44.2 nM | 237.5% | 72.1 nM | – | 244.7508% | – | – | –
CC(C)c1nn(-c2ccc(F)cc2)c2nc(C(=O)NS(C)(=O)=O)cc(N3CCC(N4CCCCC4)CC3)c12 [Compound 348, 4-([1,4'-bipiperidin]-1'-yl)-1-(4-fluorophenyl)-N-(methanesulfonyl)-3-(propan-2-yl)-1H-pyrazolo[3,4-b]pyridine-6-carboxamide] | 468.65% | 723 nM | 293.6% | 5970 nM | – | 343.24% | 200 nM | – | –
COCCN(C)c1ccc(-c2cc(C(=O)NS(C)(=O)=O)nc3c2c(C(C)C)nn3-c2cccc(N3CCOCC3)c2)cn1 [Compound 86, N-(methanesulfonyl)-4-{6-[(2-methoxyethyl)(methyl)amino]pyridin-3-yl}-1-[3-(morpholin-4-yl)phenyl]-3-(propan-2-yl)-1H-pyrazolo[3,4-b]pyridine-6-carboxamide] | 489.56% | 255 nM | 329.92% | 637 nM | – | – | – | 30 nM | 210%
